According to patent US8859587B2, “(2E)-3-phenyl-N-[2,2,2-Trifluoro-1-[[8-quinolineamino)thiomethyl]amino]ethyl]-2-acrylamide and pharmaceutical uses thereof” (Chinese PLA General Hospital, priority 2010, dated 2014):
Values joined by “and” are separate entries in the source; they are usually repeats but may differ in a detail not shown here. Equal values may be shown once. Marks after values point to notes of the source that are not given here.

Assays:
Type in all cases: cell-based, Wistar rats
[1] = tested on: primary cardiac muscle cells induced by TM; assay: Cardiomyocyte apoptosis induced by TM, TUNEL detection; settings: TM 5 μg/mL alone, 24 h, n = 6
Method: (§1) The primary cardiac muscle cells obtained by the method according to the culture method of primary cardiac muscle cells of Example 1 were added with tunicamycin (TM) on the 4th day to perform interference test. The cells were randomly divided into 5 groups: solvent control group (DMSO), TM interference group (5 μg/ml), Compound of Formula I+TM interference group (10 μM+5 μg/ml), Compound of Formula I interference group ([…]+5 μg/ml), Compound of Formula I interference group ([…]+5 μg/ml).
It was 24 h after drug interference, the apoptotic cells were detected by terminal deoxynucleotidyl transferase-mediated biotinylated UTP nick end labeling (TUNEL) method, and the cells were treated according to the specification of kit. The cells treated with 0.1 mg/ml DNase I and growing on a glass slide were used as positive control. 5 or more visual fields were randomly selected under light microscope, the apoptotic cells (brown yellow granules seen in nucleus) among the cells were counted. Apoptosis rat=(number of positively stained nuclei/number of all nuclei)×100%.

[2] = tested on: cardiac muscle cells induced by Tunicamycin (TM); assay: Survival rate of TM-induced cardiac muscle cells detected by MTT method; settings: TM 5 μg/ml alone, MTT
Method: The separation and culture of cardiomyocyte refer to the method of differential adhesion separation (Kreider, A. Messing, H. Doan, S. U. Kim, R. P. Lisak and D. E. Pleasure, Enrichment of Schwann cell cultures from neonatal rat sciatic nerve by differential adhesion, Brain Res 2 (1981), pp. 433-444.), Wistar neonate rats newly born within 24 h were used to obtain primary cardiac muscle cells.
The separated cardiac muscle cells were inoculated in an amount of 10^4 cells per well to a 96-well plate, and the volume of each well was 100 μl (marginal wells were filled with sterile PBS). […] After continuous inoculation, each well was added with 20 μl of MTT solution (5 mg/ml, formulated with PBS (pH=7.4), i.e., 0.5% MTT), and the cultivation was continued for 4 h. After the end of cultivation, culture medium in wells was carefully sucked out. Each well was added with 150 μl of DMSO, shaken at a low speed in a shaking table for 10 min, so that the crystal was sufficiently dissolved. The optical density (OD) value of each well was measured at wavelength of 490 nm by enzyme-linked immunoassay instrument, and each well was repeatedly measured for 3 times and the results were recorded. The cell survival rate at each time point was calculated according to: […], and a cell growth curve was drawn by using time as abscissa and optical density as ordinate.

[3] = tested on: primary cardiac muscle cells induced by TM; assay: Cardiomyocyte apoptosis induced by TM, AnnexinV-FITC flow cytometer; settings: TM 5 μg/ml alone, 24 h
Method: as §1
it is 24 h after drug interference, the cells were treated by the method of AnnexinV-FITC apoptosis kit, and the apoptosis was detected within 1 h by using a flow cytometer (BD ACScalibur, US Becton-Dickinson Company). For each sample, 14000 cells were collected and analyzed, the test was repeated for 3 times, and the average value was used as a result.

[4] = tested on: caspase-12 and cleaved caspase-12; assay: Western blot of caspase-12 and cleaved caspase-12 in TM-induced cardiac muscle cells; settings: TM 5 μg/ml induction alone
Method: (12000 rpm×10 min), collected supernatant. Nitrocellulose membrane was dipped in a transferring buffer for 15-20 min in advance. Sampled in 50 μg protein/lane, subjected to 10% polyacrylamide gel SDS-PAGE electrophoretic separation, the gel was then tiled in electrotransferring clamp, in which sponge, filter paper, gel, nitrocellulose membrane, filter paper and sponge were mounted from negative electrode to positive electrode in order. Constant current 350 mA, electrotransferred for 45 min. Electrotransferring membrane to […], the nitrocellulose membrane was taken out, the membrane was washed with TBST for 2 min, sealed with 5% defatted milk powder at room temperature for 1 h, added with first antibody (1:1000) and incubated at 4° C. overnight, the membrane was washed with TBST, 3 times×5 min, then […] second antibody was added, incubated at room temperature for 1 h, washed with TBST, 3 times×5 min, soaked separately with TSM1 and TSM2 for 5 min and 10 min, developed with chromogenic substrates 6.6 μl NBT and 3.3 μl BCIP dissolved in 1 ml of TSM2, after bonds become clear, the reaction was terminated by washing with water. After the end of development, the records were stored by scanning or taking photos.

Tunicamycin [TM, reference compound]
TUNEL detection (%) cardiomyocyte apoptosis rate [1]: 30.84 ± 1.26 ^a % | Cell survival rate (%) [2]: 58.8699 ± 10.7785 % | Cardiomyocyte apoptosis rate detected by flow cytometer (%) [3]: 29.98% and 29.98 ± 1.22^a % | expression of Cleaved caspase-12 [4]: obviously expressed
